Results reported in patent US9475815B2, “Substituted benzothienyl-pyrrolotriazines and uses thereof” (Bayer Intellectual Property GmbH, priority 2012, dated 2016).
Counter-ions that a name gives are not always drawn. Like-named read-outs stand apart in the source and are kept apart here.

Assays:
[1] = test system: Human umbilical vein endothelial cells (HUVEC); experiment: Inhibition of growth factor-mediated cell proliferation (hFGF-2); assay type: cell-based; conditions: 72 h exposure, hFGF-2 stimulated, from averaged pIC50 values
Protocol: Human umbilical vein endothelial cells (HUVEC) were obtained from Cellsystems (FC-0003) and grown in Vasculife VEGF complete medium (Cellsystems, LL-1020) containing 2% fetal bovine serum (FBS) at 37° C. and 5% CO2. The cells were used for proliferation assays up to passage 7.
The HUVEC cells were harvested using accutase (PAA, L11-007) and seeded in columns 2 to 12 of 96-well plates (Falcon MICROTEST tissue culture plate 96-well flat bottom, BD 353075, or μCLEAR-PLATE, black, 96-well, Greiner Bio-One, No. 655090) at a cell density of 2500 cells/well in 100 μl Vasculife VEGF complete medium with column 1 remaining empty as blank. Cells were allowed to incubate at 37° C. and 5% CO2 for at least 6 h. Then, the cells were washed once with PBS and starved overnight in Vasculife basal medium (Cellsystems, LM-0002) containing heparin, ascorbate and L-glutamine (components of the Vasculife Life Factors Kit, Cellsystems, LL-1020) as well as 0.2% FBS.
After about 18 h, the starving medium was discarded, and the cells were exposed for 72 h to 9 consecutive log or half-log concentrations of test compound in the range of 10 pM to 30 μM and to 5, 10 or 20 ng/ml hFGF-2 (recombinant human FGF basic, R&D Systems, 233-FB) in 100 μl starving medium. 10 mM stock solutions of test compounds in DMSO were diluted to 200× final concentration in DMSO resulting in a final DMSO concentration of 0.5% in all wells. Controls consisted of cells grown in starving medium only and of cells grown in hFGF-2 containing starving medium with 0.5% DMSO. To determine cell proliferation, 5 μl Alamar Blue solution (Biosource, DAL1100) was added to each well (1:20 dilution), and the cells were allowed to incubate for further 4 h at 37° C. and 5% CO2 before measuring fluorescence (ex. 535 nm, em. 595 nm) with a Spectrafluor Plus Tecan plate reader (XFLUOR4 version 4.20). In some experiments, an ATP Determination Kit (BIAFFIN GmbH, LBR-T100) was used according to the manufacturer's instructions. In each experiment, samples were assayed in triplicate, and the standard deviations were determined GraphPad Prism 5 software was used to analyze the data and to obtain IC50 values. All test compounds were assayed 2 to 10 times in independent experiments and similar results were obtained.

human FGFR-1 = human FGFR-1 (Homo sapiens, UniProt P11362); experiment: FGFR-1 high ATP kinase assay (TR-FRET)
Chain of human FGFR-1 (P11362 22-822 limits assumed): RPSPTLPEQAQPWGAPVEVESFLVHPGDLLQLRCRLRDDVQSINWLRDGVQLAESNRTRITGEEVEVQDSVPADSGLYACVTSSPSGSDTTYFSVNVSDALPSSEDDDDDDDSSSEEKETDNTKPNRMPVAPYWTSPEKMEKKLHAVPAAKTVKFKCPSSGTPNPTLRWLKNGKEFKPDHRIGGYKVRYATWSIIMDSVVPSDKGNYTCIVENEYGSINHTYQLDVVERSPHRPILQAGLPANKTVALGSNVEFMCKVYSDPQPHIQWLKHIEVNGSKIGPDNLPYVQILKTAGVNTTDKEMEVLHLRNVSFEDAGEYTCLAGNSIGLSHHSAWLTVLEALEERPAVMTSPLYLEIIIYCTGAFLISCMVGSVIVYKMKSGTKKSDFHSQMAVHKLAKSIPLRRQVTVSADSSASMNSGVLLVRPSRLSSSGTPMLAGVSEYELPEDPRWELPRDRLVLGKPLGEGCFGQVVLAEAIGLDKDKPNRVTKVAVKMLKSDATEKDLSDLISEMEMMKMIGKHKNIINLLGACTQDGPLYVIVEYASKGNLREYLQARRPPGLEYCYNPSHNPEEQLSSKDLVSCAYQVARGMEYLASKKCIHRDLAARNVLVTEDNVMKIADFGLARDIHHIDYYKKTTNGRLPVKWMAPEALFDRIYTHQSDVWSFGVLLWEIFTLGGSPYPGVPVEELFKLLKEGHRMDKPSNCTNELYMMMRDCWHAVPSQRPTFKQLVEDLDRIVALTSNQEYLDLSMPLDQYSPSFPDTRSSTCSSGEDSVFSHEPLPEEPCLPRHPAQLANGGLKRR

human mTOR = human mTOR (Homo sapiens (Human), UniProt P42345); experiment: mTOR kinase assay (TR-FRET, for comparative purposes); assay type: biochemical; conditions: for inhibition at 1 µM: read-out: mTOR % inhibition @ 1 μM, 1 μM test compound, 40 μM ATP, mean values; for mTOR % inhibition @ 1 μM: 1 μM test compound, 40 μM ATP, mean values
Chain of human mTOR (P42345 1360-2549): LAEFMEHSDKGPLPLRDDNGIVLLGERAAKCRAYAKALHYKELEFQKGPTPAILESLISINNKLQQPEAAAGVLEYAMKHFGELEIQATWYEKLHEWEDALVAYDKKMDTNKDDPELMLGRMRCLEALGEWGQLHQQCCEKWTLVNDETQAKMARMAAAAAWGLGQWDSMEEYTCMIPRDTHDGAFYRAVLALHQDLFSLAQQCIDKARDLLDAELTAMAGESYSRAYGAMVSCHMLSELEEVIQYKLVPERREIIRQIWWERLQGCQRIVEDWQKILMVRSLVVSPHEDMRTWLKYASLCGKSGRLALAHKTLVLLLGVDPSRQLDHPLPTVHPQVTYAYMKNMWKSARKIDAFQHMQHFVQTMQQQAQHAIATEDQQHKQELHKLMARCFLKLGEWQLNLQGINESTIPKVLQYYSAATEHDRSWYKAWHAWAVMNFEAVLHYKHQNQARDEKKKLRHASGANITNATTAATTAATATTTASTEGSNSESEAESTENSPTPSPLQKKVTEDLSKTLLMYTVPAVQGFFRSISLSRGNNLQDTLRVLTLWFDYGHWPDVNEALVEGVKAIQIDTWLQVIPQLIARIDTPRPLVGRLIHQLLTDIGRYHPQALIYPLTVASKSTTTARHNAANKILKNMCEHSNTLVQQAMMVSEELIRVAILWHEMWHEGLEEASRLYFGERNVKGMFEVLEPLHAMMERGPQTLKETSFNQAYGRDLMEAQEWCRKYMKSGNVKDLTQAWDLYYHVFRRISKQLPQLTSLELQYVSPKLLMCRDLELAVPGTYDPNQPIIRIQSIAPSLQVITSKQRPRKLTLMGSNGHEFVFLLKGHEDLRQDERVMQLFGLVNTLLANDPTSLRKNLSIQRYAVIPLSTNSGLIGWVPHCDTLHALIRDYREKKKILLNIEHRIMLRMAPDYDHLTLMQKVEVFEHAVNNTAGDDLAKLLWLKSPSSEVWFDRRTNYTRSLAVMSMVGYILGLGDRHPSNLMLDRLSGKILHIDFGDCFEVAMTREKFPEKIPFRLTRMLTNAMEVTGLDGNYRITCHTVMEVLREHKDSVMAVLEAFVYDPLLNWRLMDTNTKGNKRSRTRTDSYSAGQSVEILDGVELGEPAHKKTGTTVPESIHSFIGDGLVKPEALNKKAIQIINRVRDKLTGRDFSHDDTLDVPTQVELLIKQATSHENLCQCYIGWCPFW
Protocol: mTOR inhibitory activity of the compounds of the present invention was quantified employing the TR-FRET based mTOR assay as described in the following paragraphs:
Test compounds were dissolved in DMSO to generate 10 mM stock solutions. These solutions were first 10-fold diluted by 100% DMSO to get 1 mM solutions in 100% DMSO, then 100-fold diluted by 50% DMSO to get 10 μM solutions in 50% DMSO.
(final concentration in the 10 μl assay volume=1 nM) in FRET buffer.
For this, the fluorescence emissions at 495 nm and 520 nm after excitation at 340 nm was measured in an Envision 2104 multilabel reader (Perkin-Elmer).

human FGFR-3 = human FGFR-3 (Homo sapiens (Human), UniProt P22607); experiment: FGFR-3 kinase assay (TR-FRET); assay type: biochemical; conditions: 10 μM ATP, 15 min pre-incubation with enzyme
Chain of human FGFR-3 (P22607 397-806): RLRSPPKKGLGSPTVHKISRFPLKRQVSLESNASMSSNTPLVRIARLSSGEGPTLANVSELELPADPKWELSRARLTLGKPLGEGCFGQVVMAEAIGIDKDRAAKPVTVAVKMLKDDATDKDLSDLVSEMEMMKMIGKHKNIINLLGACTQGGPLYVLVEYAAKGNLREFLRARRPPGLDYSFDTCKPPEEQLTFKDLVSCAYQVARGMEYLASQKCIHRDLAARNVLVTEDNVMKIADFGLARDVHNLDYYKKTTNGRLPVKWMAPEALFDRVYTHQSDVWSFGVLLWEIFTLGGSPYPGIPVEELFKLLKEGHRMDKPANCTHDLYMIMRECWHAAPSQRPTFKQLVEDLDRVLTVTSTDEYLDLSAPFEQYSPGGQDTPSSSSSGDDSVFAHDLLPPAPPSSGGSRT

SMILES	IC50 ([1]; trihydrochloride hydrate) [nM]	IC50 (human FGFR-1) [nM]	inhibition at 1 µM (human mTOR) [%]	IC50 ([1]; Homo sapiens, HUVEC, 72 h) [nM]	IC50 [1] [nM]	IC50 (human FGFR-1; read-out: FGFR-1 (high ATP) IC50, 2 mM ATP, 15 min pre-incubation with enzyme) [nM]	mTOR % inhibition @ 1 μM (human mTOR)	IC50 (human FGFR-3) [nM]
COc1cc(C)cc2cc(-c3cc(CN4CCNCC4)n4ncnc(N)c34)sc12 [Example 1, 5-(7-Methoxy-5-methyl-1-benzothiophen-2-yl)-7-(piperazin-1-ylmethyl)pyrrolo[2,1-f][1,2,4]-triazin-4-amine trihydrochloride hydrate]	36	9.9	17.6	–	–	–	–	–
COc1cc(C)cc2cc(-c3cc(CN4CCNC(C(N)=O)C4)n4ncnc(N)c34)sc12 (racemic) [Example 7, rac-4-{[4-Amino-5-(7-methoxy-5-methyl-1-benzothiophen-2-yl)pyrrolo[2,1-f][1,2,4]triazin-7-yl]-methyl}piperazine-2-carboxamide trihydrochloride]	–	7.8	43.7	44	–	–	–	–
COc1cc(C)cc2cc(-c3cc(CN4CCNCC4)n4ncnc(N)c34)sc12 [Example 2, 5-(7-Methoxy-5-methyl-1-benzothiophen-2-yl)-7-(piperazin-1-ylmethyl)pyrrolo[2,1-f][1,2,4]-triazin-4-amine]	–	–	–	–	127	20.1	22.8%	–
CNC1CCN(Cc2cc(-c3cc4cc(C)cc(OC)c4s3)c3c(N)ncnn23)C1 (stereo not drawn) [Example 41]	–	7.3	25.9	49	–	–	–	–
COc1cc(C)cc2cc(-c3cc(CN4CCC(N(C)C)C4)n4ncnc(N)c34)sc12 (stereo not drawn) [Example 42]	–	13.4	36.3	130	–	–	–	–
COc1cc(C)cc2cc(-c3cc(CN4CCNC(C)(C)C4)n4ncnc(N)c34)sc12 [Example 45]	–	18.1	25.9	217	–	–	–	–
COc1cc(C)cc2cc(-c3cc(CNCC4CCN(C)CC4)n4ncnc(N)c34)sc12 [Example 61]	–	39.7	8.6	–	–	–	–	43.5
CCC(N)COCc1cc(-c2cc3cc(C)cc(OC)c3s2)c2c(N)ncnn12 (stereo not drawn) [Example 112]	–	67.2	8.8	–	–	–	–	102
COc1cc(C)cc2cc(-c3cc(COCCNC(C)C)n4ncnc(N)c34)sc12 [Example 115]	–	78.6	6.5	–	–	–	–	63.9
COc1cc(C)cc2cc(-c3cc(CN4CC[C@@H](N)C4)n4ncnc(N)c34)sc12 [Example 53]	–	94.1	12.6	–	–	–	–	145
COc1cc(C)cc2cc(-c3cc(COCCN4CCCC4)n4ncnc(N)c34)sc12 [Example 107, 5-(7-Methoxy-5-methyl-1-benzothiophen-2-yl)-7-{[2-(pyrrolidin-1-yl)ethoxy]methyl}pyrrolo-[2,1-f][1,2,4]triazin-4-amine hydrochloride]	–	57.3	15	–	–	–	–	46.1
CNCCOCc1cc(-c2cc3cc(C)cc(OC)c3s2)c2c(N)ncnn12 [Example 117]	–	36.1	0.3	–	–	–	–	34.8
CCCc1nccn1Cc1cc(-c2cc3cc(C)cc(OC)c3s2)c2c(N)ncnn12 [Example 121]	–	33.3	26.8	–	–	–	–	65.9
COc1cc(C)cc2cc(-c3cc(COC[C@@H]4CCCN4)n4ncnc(N)c34)sc12 [Example 109]	–	65.6	–	–	–	–	no inhib. effect detect.	37.1
COc1cc(C)cc2cc(-c3cc(CN4CCC(N5CCCC5)C4)n4ncnc(N)c34)sc12 (stereo not drawn) [Example 60]	–	39.6	11.3	–	–	–	–	58.6
COc1cc(C)cc2cc(-c3cc(CO[C@@H]4CCNC4)n4ncnc(N)c34)sc12 [Example 118]	–	26.1	18.4	–	–	–	–	45
CCNC(=O)COCc1cc(-c2cc3cc(C)cc(OC)c3s2)c2c(N)ncnn12 [Example 114]	–	65.3	27.7	–	–	–	–	30.5
COCCN(C)Cc1cc(-c2cc3cc(C)cc(OC)c3s2)c2c(N)ncnn12 [Example 76]	–	83	29.9	–	–	–	–	73.7

SMILES	IC50 ([1]; trihydrochloride hydrate) [nM]	IC50 (human FGFR-1) [nM]	inhibition at 1 µM (human mTOR) [%]	IC50 ([1]; Homo sapiens, HUVEC, 72 h) [nM]	IC50 [1] [nM]	IC50 (human FGFR-1; read-out: FGFR-1 (high ATP) IC50, 2 mM ATP, 15 min pre-incubation with enzyme) [nM]	mTOR % inhibition @ 1 μM (human mTOR)	IC50 (human FGFR-3) [nM]
COc1cc(C)cc2cc(-c3cc(CN4CC(N5CCCC5)C4)n4ncnc(N)c34)sc12 [Example 71]	–	63.4	21.5	–	–	–	–	79.3
COc1cc(C)cc2cc(-c3cc(CN[C@@H](C)C(N)=O)n4ncnc(N)c34)sc12 [Example 85]	–	45.4	28.2	–	–	–	–	22.1
COc1cc(C)cc2cc(-c3cc(CN4CCC5CN(C)CC54)n4ncnc(N)c34)sc12 (stereo not drawn) [Example 24]	–	34.1	17.3	–	–	–	–	119
COc1cc(C)cc2cc(-c3cc(C(=O)N4CCC(N(C)C)C4)n4ncnc(N)c34)sc12 (stereo not drawn) [Example 100]	–	20.7	15.9	–	–	–	–	35.9
COc1cc(C)cc2cc(-c3cc(CNC4CCCC4O)n4ncnc(N)c34)sc12 (stereo not drawn) [Example 83]	–	98.6	18.3	–	–	–	–	97.9
COc1cc(C)cc2cc(-c3cc(COC[C@H]4CCCN4)n4ncnc(N)c34)sc12 [Example 110]	–	51.6	4.9	–	–	–	–	57.4
COc1cc(C)cc2cc(-c3cc(CNC4CCN(C(C)C)CC4)n4ncnc(N)c34)sc12 [Example 80]	–	93.4	3	–	–	–	–	120
COc1cc(C)cc2cc(-c3cc(CNC4CC4)n4ncnc(N)c34)sc12 [Example 81]	–	93.4	44.7	–	–	–	–	110
COc1cc(C)cc2cc(-c3cc(CN4CCCN(CCO)CC4)n4ncnc(N)c34)sc12 [Example 59]	–	39.4	7	–	–	–	–	47.7
COc1cc(C)cc2cc(-c3cc(CN4CCCN(C)CC4)n4ncnc(N)c34)sc12 [Example 89]	–	24.9	28.7	–	–	–	–	28.2
COc1cc(C)cc2cc(-c3cc(C(=O)N4CCC[C@@H](N)C4)n4ncnc(N)c34)sc12 [Example 104]	–	28.1	17.9	–	–	–	–	14.6
COc1cc(C)cc2cc(-c3cc(CNCCO)n4ncnc(N)c34)sc12 [Example 72]	–	65	–	–	–	–	no inhib. effect detect.	47.2
COc1cc(C)cc2cc(-c3cc(CN[C@H]4CC[C@@H](N(C)C)CC4)n4ncnc(N)c34)sc12 [Example 87]	–	13.2	21.9	–	–	–	–	29.1
COc1cc(C)cc2cc(-c3cc(CNCCC4CCCN4C)n4ncnc(N)c34)sc12 (stereo not drawn) [Example 65]	–	49.1	5.9	–	–	–	–	49.5
CNC(=O)CNCc1cc(-c2cc3cc(C)cc(OC)c3s2)c2c(N)ncnn12 [Example 28]	–	83.2	6.9	–	–	–	–	63.7
COc1cc(C)cc2cc(-c3cc(CN4CCC(CO)CC4)n4ncnc(N)c34)sc12 [Example 73]	–	66.6	17.2	–	–	–	–	64.8
COc1cc(C)cc2cc(-c3cc(CN4CC[C@@H](O)C4)n4ncnc(N)c34)sc12 [Example 84]	–	38.9	15.3	–	–	–	–	39.1
COc1cc(C)cc2cc(-c3cc(CN4CC5CC5(N)C4)n4ncnc(N)c34)sc12 (stereo not drawn) [Example 27]	–	42.2	2.4	–	–	–	–	60.8
